Assay results as given in patent US20220268780A1, “METHODS OF PREDICTING ENDOMETRIAL RECEPTIVITY” (HUDSON INSTITUTE OF MEDICAL RESEARCH, priority 2019, published 2022).

Test system: PCX mRNA in Ishikawa cells
Test: Transfection of miRNA mimics into Ishikawa cells, PCX mRNA by real-time RT-PCR
Type: cell-based, human
Conditions: mimic 5 μm, 24 h after transfection
Method: To confirm that these two miRNAs can directly down-regulate PCX, mimics of these miRNAs were transfected into a human endometrial epithelial Ishikawa cell line and the impact on the level of PCX expression examined.
Ishikawa cells were cultured overnight in a 12-well plate (3.0×10^5 per well) in complete medium containing MEM (Thermo Fisher Scientific) supplemented with 10% FCS, 1% L-glutamine (Sigma) and 1% antibiotic-antimycotic. The following day, cells were replenished with Opti-MEM for transfection. Control and miRNA mimics (5 μm, all from Thermo Fisher Scientific) were transfected into Ishikawa cells using Lipofectamine RNAiMAX Transfection Reagent (Thermo Fisher Scientific) for 24, 48, 72 h respectively, and PCX mRNA levels were examined by real-time RT-PCR. Combination of the two miRNAs (5 μm each) was also tested.

Substance | repression of PCX mRNA [%]
miR-199: miRNA mimic (Thermo Fisher Scientific); sequence CCCAGUGUUCAGACUACCUGUUC, SEQ ID NO: 31 (chemistry not given here) | ~34
miR-145: miRNA mimic (Thermo Fisher Scientific); sequence GUCCAGUUUUCCCAGGAAUCCCU, SEQ ID NO: 33 (chemistry not given here) | ~34
